According to patent US8722687B2, “Imidazo [1,2-A]pyridine derivatives as FGFR kinase inhibitors for use in therapy” (Astex Therapeutics Ltd, priority 2009, dated 2014):

Experiments:
Ba/F3-TEL-FGFR3 cells = molecular target: T1, Ba/F3-TEL-FGFR3 cells (Homo sapiens, UniProt P22607); test: Ba/F3-TEL-FGFR3 cell proliferation assay (Alamar Blue); type: cell-based, murine; details: 72 hours; read-out: BaF3-TEL-FGFR3 prolif
T1 construct: fused on or other part: TEL (ETV6) N-terminal oligomerising part fused to the FGFR3 kinase part; P41212 (Transcription factor ETV6)
Experimental: (§1) Ba/F3-TEL-FGFR3 & Ba/F3 (WT) Cell Proliferation Assays
(§2) Stably transfected Ba/F3-TEL-FGFR3 cells were plated out into black 96-well tissue culture plates with clear bottoms in RPMI medium containing 10% FBS and 0.25 mg/ml G418 at a density of 5×10^3 cells/well (200 μl per well). The parental wild-type Ba/F3 cells (DSMZ no.: ACC 300) were plated out into black 96-well tissue culture plates with clear bottoms in RPMI medium containing 10% FBS and 2 ng/ml mouse IL-3 (R&D Systems) at a density of 2.5×10^3 cells/well (200 μl per well). Plates were placed in an incubator overnight before adding the compounds the following day. Dilutions of compounds were made in DMSO starting at 10 mM and were diluted into the wells to give a final DMSO concentration of 0.1% in assay. Compounds were left on the cells for 72 hours before the plates were removed from the incubator and 20 μl of Alamar Blue™ (Biosource) was added to each well. Plates were placed in the incubator for 4-6 hours before reading plates at 535 nm (excitation)/590 nm (emission) on a Fusion plate reader (Packard). Where inhibition is high an IC50 can be determined.

VEGFR2 = molecular target: T2, VEGFR2 (Homo sapiens, UniProt P35968); test: VEGFR2 in vitro kinase inhibitory activity assay; type: biochemical; details: read-out: VEGFR2 IC50(μM) or % I
T2 construct: purchased Upstate
Experimental: (§3) FGFR3, VEGFR2 and PDGFR in vitro Kinase Inhibitory Activity Assays
(§4) Enzymes (from Upstate), prepared at 2× final concentration, were incubated with test compounds, biotinylated Flt3 substrate (biotin-VASSDNEYFYVDF) (Cell Signalling Technology Inc.) and ATP in the appropriate assay buffer (Table 1). The reaction was allowed to proceed for 3 hours (FGFR3), 1 hour (VEGFR2, PDGFR-beta) at room temperature on a plate shaker at 700 rpm before being stopped with 35 mM EDTA, pH 8 (FGFR3, VEGFR2) or 55 mM EDTA, pH 8 (PDGFR-beta). 5× detection mix/50 mM HEPES pH 7.5, 0.1% BSA, 11.34 nM Eu-anti-pY (PY20) (PerkinElmer) 74 nM SA-XL665 (Cisbio) for FGFR3, 50 mM HEPES, pH 7.5, 0.1% BSA, 11.34 nM Eu-anti-pY (PY20), 187.5 nM SA-XL665 for VEGFR2 and 50 mM HEPES, pH 7.5, 0.1% BSA, 11.34 nM Eu-anti-pY (PT66) (PerkinElmer), 375 nM SA-XL665 (Cisbio) for PDGFR-beta) was then added to each well and the plate sealed and incubated at room temperature for one hour on a plate shaker at 700 rpm. The plate was then read on a Packard Fusion plate reader or a BMG Pherastar both in TRF mode.
Kinase Assay buffers were:
B: 50 mM HEPES pH 7.5, 6 mM MnCl2, 1 mM DTT, 0.01% TritonX-100, 0.1 mM Sodium orthovanadate

Ba/F3-Flt3 cells = test: Ba/F3-Flt3 assay (Alamar Blue); type: cell-based, murine; details: Mus musculus, 24 h; with 10 ng/ml murine IL3; read-out: Ba/F3-flt3 + IL3 pIC50 (converted)
From the text: Ba/F3, a murine interleukin-3 dependent pro-B cell line is increasingly popular as a model system for assessing both the potency and downstream signaling of kinase oncogenes, and the ability of small-molecule kinase inhibitors to block kinase activity. Facilitated by their growth properties. Ba/F3 cells have recently been adapted to high throughput assay formats for compound profiling. Further, several published approaches show promise in predicting resistance to small-molecule kinase inhibitors elicited by point mutations interfering with inhibitor binding (Ba/F3 cells and their use in kinase drug discovery; Markus Warmuth, Sungjoon Kim, Xiang-ju Gu, Gang Xia and Francisco Adria'n; Curr Opin Oncol 19:55-60).
Ba/F3-Flt3 cells (cultured in phenol red free RPMI-1640, 10% A FCS and 50 μg/ml Gentamycin at 37° C. and 5% 002) were plated at a density of 10000 cells in a total volume of 180 μl medium in a black TC-treated sterile 96-well plate (Corning). After 24 hours, drugs in different dilutions were added to a final volume of 200 μl and at a final DMSO concentration of 0.2% prior to incubation at 37° C., and 5% CO2.
After 24 h, to each well 40 μl Alamar Blue solution (Aldrich) was added and the cells were further incubated for 4 hours at 37° C. Fluorescence (ex. 544, em. 590 nm) was measured using a fluorescence reader (Labsystems) and IC50's were calculated.
In the condition containing IL3, 10 ng/ml of murine IL3 (PeproTech) was added during compound incubation.

[1] = system: parental wild-type Ba/F3 cells; test: Ba/F3 (WT) cell proliferation assay (Alamar Blue); type: cell-based, murine; details: read-out: BaF3 WT prolif
Experimental: as §1, §2

FGFR3 = molecular target: T3, FGFR3 (Homo sapiens, UniProt P22607); test: FGFR3 in vitro kinase inhibitory activity assay; type: biochemical; details: read-out: FGFR3 IC50(μM) or % I
T3 construct: purchased Upstate
Experimental: as §3, §4

T2 sequence (P35968 20-1356): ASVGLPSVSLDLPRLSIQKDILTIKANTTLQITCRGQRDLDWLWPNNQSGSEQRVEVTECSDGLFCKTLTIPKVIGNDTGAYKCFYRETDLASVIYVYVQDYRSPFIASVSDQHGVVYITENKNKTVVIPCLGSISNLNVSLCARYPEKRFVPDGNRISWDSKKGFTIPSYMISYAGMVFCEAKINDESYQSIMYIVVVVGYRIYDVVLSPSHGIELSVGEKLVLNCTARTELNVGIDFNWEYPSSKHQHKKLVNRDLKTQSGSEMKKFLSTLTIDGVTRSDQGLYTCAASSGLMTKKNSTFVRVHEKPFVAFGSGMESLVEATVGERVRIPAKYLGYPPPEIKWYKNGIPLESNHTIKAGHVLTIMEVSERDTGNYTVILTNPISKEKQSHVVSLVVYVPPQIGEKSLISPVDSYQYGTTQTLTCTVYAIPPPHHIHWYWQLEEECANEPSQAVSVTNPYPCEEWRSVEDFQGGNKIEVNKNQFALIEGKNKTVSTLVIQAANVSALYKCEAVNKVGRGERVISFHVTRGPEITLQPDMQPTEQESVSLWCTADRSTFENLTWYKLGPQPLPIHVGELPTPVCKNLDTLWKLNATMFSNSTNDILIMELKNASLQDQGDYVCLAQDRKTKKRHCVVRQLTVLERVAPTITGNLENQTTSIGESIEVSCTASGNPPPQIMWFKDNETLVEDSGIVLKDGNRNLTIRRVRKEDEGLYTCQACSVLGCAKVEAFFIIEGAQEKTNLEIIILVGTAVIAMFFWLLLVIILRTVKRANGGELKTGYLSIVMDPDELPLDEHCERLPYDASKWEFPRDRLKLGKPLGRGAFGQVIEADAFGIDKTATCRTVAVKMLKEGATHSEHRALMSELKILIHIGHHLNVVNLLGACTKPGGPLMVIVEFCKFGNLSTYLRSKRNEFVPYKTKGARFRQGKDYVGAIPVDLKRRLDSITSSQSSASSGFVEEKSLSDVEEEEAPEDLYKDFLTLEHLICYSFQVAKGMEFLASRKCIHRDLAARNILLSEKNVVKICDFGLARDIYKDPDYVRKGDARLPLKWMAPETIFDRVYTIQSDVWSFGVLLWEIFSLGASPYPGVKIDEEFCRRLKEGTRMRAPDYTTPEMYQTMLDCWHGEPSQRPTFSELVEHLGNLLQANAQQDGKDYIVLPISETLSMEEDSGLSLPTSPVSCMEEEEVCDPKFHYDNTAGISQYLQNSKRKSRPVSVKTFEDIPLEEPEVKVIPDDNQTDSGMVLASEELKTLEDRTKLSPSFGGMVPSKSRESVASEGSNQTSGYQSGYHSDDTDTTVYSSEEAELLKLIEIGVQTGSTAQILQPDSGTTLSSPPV
T3 sequence (P22607 23-806): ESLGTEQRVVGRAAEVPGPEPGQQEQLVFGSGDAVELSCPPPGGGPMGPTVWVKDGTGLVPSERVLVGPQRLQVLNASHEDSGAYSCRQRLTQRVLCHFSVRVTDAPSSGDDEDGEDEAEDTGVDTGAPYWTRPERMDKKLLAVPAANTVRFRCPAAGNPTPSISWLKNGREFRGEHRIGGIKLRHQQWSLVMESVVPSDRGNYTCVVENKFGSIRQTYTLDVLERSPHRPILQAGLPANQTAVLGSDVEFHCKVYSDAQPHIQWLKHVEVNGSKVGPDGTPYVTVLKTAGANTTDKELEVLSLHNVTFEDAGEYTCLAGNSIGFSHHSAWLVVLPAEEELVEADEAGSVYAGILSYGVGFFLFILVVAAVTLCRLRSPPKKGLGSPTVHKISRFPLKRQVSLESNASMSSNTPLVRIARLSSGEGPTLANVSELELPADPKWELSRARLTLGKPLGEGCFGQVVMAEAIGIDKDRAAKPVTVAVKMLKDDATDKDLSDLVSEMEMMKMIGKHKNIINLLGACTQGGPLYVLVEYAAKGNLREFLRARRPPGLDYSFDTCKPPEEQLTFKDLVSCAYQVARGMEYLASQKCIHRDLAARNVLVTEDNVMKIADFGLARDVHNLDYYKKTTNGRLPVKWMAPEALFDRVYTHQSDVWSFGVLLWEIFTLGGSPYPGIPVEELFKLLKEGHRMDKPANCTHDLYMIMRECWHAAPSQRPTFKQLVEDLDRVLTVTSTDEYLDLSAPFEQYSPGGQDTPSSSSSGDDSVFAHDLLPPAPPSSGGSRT
T1 sequence (P22607 whole entry, change not shown, the tested form may be a part): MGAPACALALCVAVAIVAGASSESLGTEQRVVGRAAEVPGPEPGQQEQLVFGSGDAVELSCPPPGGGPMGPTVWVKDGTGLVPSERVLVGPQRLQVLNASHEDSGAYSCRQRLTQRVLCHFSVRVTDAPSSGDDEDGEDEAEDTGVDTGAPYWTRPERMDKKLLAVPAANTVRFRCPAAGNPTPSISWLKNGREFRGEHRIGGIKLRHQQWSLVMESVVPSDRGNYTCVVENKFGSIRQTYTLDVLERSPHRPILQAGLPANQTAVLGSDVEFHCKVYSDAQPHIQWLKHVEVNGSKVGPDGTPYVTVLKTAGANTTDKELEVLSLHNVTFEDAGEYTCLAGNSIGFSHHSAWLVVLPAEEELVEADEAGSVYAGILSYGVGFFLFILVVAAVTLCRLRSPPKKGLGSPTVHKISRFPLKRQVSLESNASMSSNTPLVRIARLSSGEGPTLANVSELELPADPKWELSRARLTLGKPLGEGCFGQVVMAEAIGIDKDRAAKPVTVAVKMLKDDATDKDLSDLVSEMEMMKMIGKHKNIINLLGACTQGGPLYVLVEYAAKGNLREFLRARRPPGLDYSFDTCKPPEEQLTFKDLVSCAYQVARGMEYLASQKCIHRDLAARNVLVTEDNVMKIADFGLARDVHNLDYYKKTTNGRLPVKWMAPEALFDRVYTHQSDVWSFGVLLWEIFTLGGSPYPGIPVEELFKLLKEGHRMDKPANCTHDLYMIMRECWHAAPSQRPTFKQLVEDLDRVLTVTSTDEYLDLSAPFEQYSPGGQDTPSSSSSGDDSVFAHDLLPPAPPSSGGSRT

Row | Structure (SMILES) | GI50 (Ba/F3-TEL-FGFR3 cells) [nM] | IC50 (VEGFR2) [µM] | IC50 (Ba/F3-Flt3 cells) [nM] | IC50 (FGFR3) [µM] | inhibition at 10 µM (VEGFR2; 1 h, % I at 10 μM) [%] | inhibition at 10 µM ([1]; Mus musculus, BaF3, 72 h) [%] | inhibition at 1 µM ([1]; Mus musculus, BaF3, 72 h, % at 1.00 μM) [%] | inhibition at 3 µM ([1]; Mus musculus, BaF3, 72 h) [%] | IC50 ([1]; BaF3, 72 hours, with mouse IL-3) [nM]
1 | CC(C)Oc1cc(NC(=O)NCC(F)(F)F)cc(-c2cnc3cc(OCCCO)ccn23)c1 [Compound F-18, 1-{3-[7-(3-Hydroxy-propoxy)-imidazo[1,2-a]pyridin-3-yl]-5-isopropoxy-phenyl}-3-(2,2,2-trifluoro-ethyl)-urea] | 440 | 0.67 | > 10000 | 0.02 |  | 54 |  |  | 
2 | CC(C)Oc1cc(NC(=O)NCC(F)(F)F)cc(-c2cnc3cc(-c4nccc(C(C)(C)CO)n4)ccn23)c1 [Compound F-27, 1-(3-{7-[4-(2-Hydroxy-1,1-dimethylethyl)-pyrimidin-2-yl]-imidazo[1,2-a]pyridin-3-yl}-5-isopropoxy-phenyl)-3-(2,2,2-trifluoro-ethyl)-urea] | 1580 | 1.2 | > 10000 | 0.042 |  |  |  | 50 | 
3 | Cc1cn(-c2ccn3c(-c4cc(NC(=O)NCC(F)(F)F)cc(OC(C)C)c4)cnc3c2)cn1 [Compound F-28, 1-{3-Isopropoxy-5-[7-(4-methylimidazol-1-yl)-imidazo[1,2-a]pyridin-3-yl]-phenyl}-3-(2,2,2-trifluoro-ethyl)-urea] | 100 | 0.077 | > 10000 | 0.0016 |  | 73 |  |  | 

More lines, main results first:

Row | GI50 (Ba/F3-TEL-FGFR3 cells) [nM] | IC50 (VEGFR2) [µM] | IC50 (Ba/F3-Flt3 cells) [nM] | IC50 (FGFR3) [µM] | inhibition at 10 µM (VEGFR2; 1 h, % I at 10 μM) [%] | Structure (SMILES) | inhibition at 10 µM ([1]; Mus musculus, BaF3, 72 h) [%] | inhibition at 1 µM ([1]; Mus musculus, BaF3, 72 h, % at 1.00 μM) [%] | inhibition at 3 µM ([1]; Mus musculus, BaF3, 72 h) [%] | IC50 ([1]; BaF3, 72 hours, with mouse IL-3) [nM]
4 | 42 | 0.092 | > 10000 | 0.00247 |  | CC(C)Oc1cc(NC(=O)NCC(F)(F)F)cc(-c2cnc3cc(-c4nncs4)ccn23)c1.Cl [Compound F-19, 1-[3-Isopropoxy-5-(7-[1,3,4]thiadiazol-2-yl-imidazo[1,2-a]pyridin-3-yl)-phenyl]-3-(2,2,2-trifluoro-ethyl)-urea] |  | 0 |  | 
5 | 9 | 0.029 | > 10000 | 0.00096 |  | Cc1nnc(-c2ccn3c(-c4cc(NC(=O)NCC(F)(F)F)cc(OC(C)C)c4)cnc3c2)s1.Cl [Compound F-20, 1-{3-Isopropoxy-5-[7-(5-methyl-[1,3,4]thiadiazol-2-yl)-imidazo[1,2-a]pyridin-3-yl]-phenyl}-3-(2,2,2-trifluoro-ethyl)-urea] |  |  | 0 | 
6 | 50 | 0.087 | > 10000 | 0.004 |  | CCNC(=O)Nc1cc(OC(C)C)cc(-c2cnc3cc(-c4nnc(C)s4)ccn23)c1 [Compound F-23, 1-Ethyl-3-{3-isopropoxy-5-[7-(5-methyl-[1,3,4]thiadiazol-2-yl)-imidazo[1,2-a]pyridin-3-yl]-phenyl}-urea] | 5 |  |  | 
7 | 3160 |  | > 10000 | 0.092 | 53 | CC(C)Oc1cc(NC(=O)NCC(F)(F)F)cc(-c2cnc3cc(-c4nccc(C(C)C)n4)ccn23)c1 [Compound F-29, 1-{3-Isopropoxy-5-[7-(4-isopropyl-pyrimidin-2-yl)-imidazo[1,2-a]pyridin-3-yl]-phenyl}-3-(2,2,2-trifluoroethyl)-urea] |  |  |  | 3980
